Assay results taken from paper PMC9512720, “Insight into the mechanism of molecular recognition between human Integrin-Linked Kinase and Cpd22 and its implication at atomic level” (Journal of Computer-Aided Molecular Design, 2022).

Molecular target: T1, Integrin-linked kinase (ILK) (Homo sapiens, UniProt Q13418)
T1 sequence (Q13418 1-452): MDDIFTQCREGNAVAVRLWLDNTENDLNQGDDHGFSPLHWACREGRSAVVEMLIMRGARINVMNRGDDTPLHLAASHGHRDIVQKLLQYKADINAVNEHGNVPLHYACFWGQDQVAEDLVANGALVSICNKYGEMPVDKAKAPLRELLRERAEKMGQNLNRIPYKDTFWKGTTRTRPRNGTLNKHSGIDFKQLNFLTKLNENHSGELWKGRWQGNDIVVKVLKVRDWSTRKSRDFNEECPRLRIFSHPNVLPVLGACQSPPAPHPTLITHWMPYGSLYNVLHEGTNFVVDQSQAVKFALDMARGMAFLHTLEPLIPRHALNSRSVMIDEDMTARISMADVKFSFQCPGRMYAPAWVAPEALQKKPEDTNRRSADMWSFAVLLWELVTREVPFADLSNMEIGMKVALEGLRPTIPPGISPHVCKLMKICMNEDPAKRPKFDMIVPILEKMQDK
Test: SPR (Biacore X-100, ILK immobilized on CM5 chip by amine coupling, Cpd22 […])
Assay type: binding

A Kd of roughly 592 µM was found for `CNC(=O)CCc1cc(-c2ccc(-c3ccc(C(F)(F)F)cc3)cc2)n(-c2ccc(N3CCNCC3)cc2)n1` [Cpd22] in this work.
